# Reference: ChEMBL document CHEMBL4334464, “From Phenylthiazoles to Phenylpyrazoles: Broadening the Antibacterial Spectrum toward Carbapenem-Resistant Bacteria” (J Med Chem, 2019)
# Activity calls are given as the source filed them. No cut-off for these calls is given here.
# What was measured:
# Clostridioides difficile = test: Ratio of MBC to MIC for Clostridium difficile ATCC BAA 1870; assay type: functional
# Streptococcus pneumoniae [1] = test: Ratio of MBC to MIC for cephalosporin-resistant Streptococcus pneumoniae ATCC 51916 clinical isolates; assay type: functional
# Acinetobacter baumannii [2] = test: microbe, parasite or virus in culture; conditions: ATCC BAA 1747
# Description: Antibacterial activity against Acinetobacter baumannii ATCC BAA 1747 after 18 to 20 hrs in aerobic condition by CLSI-based broth microdilution assay
# Klebsiella pneumoniae [3] = test: Ratio of MBC to MIC for Klebsiella pneumoniae BAA-1144 clinical isolates; assay type: functional
# [4] = tested on: Enterobacter cloacae subsp. cloacae; test: Ratio of MBC to MIC for Enterobacter cloacae subsp. cloacae ATCC BAA-1143 clinical isolates; assay type: functional
# [5] = tested on: Staphylococcus epidermidis; test: Ratio of MBC to MIC for Staphylococcus epidermidis NRS101 clinical isolates; assay type: functional
# Shigella flexneri [6] = test: Antibacterial activity against Shigella flexneri ATCC 9199 clinical isolates after 18 to 20 hrs in aerobic condition by CLSI-based broth microdilution assay; assay type: functional
# Escherichia coli [7] = test: Antibacterial activity against Escherichia coli ATCC 35150 clinical isolates after 18 to 20 hrs in aerobic condition by CLSI-based broth microdilution assay; assay type: functional
# Pseudomonas aeruginosa [8] = test: Antibacterial activity against Pseudomonas aeruginosa ATCC 15442 clinical isolates after 18 to 20 hrs in aerobic condition by CLSI-based broth microdilution assay; assay type: functional
# Salmonella enterica = test: Antibacterial activity against Salmonella enterica NR-170 clinical isolates after 18 to 20 hrs in aerobic condition by CLSI-based broth microdilution assay; assay type: functional
# Staphylococcus aureus [9] = test: Bactericidal activity against methicillin-resistant Staphylococcus aureus NRS123-USA400 clinical isolates at 5 times MIC incubated over 24 hrs followed by replating on tryptic soy agar plate and further incubated for 18 to 20 hrs by time kill assay; assay type: functional, organism-based
# Escherichia coli [10] = test: Inhibition of 6His tagged Escherichia coli UPPP expressed in Escherichia coli C41(DE3) cells preincubated for 15 mins followed by FPP substrate addition and measured after 20 mins by malachite green reagent based assay
# Escherichia coli [11] = test: Antibacterial activity against carbapenem-resistant Escherichia coli BAA-2452 clinical isolates after 18 to 20 hrs in aerobic condition by CLSI-based broth microdilution assay; assay type: functional
# Listeria monocytogenes [12] = test: Antibacterial activity against Listeria monocytogenes ATCC 19111 after 18 to 20 hrs in aerobic condition by CLSI-based broth microdilution assay; assay type: functional
# Streptococcus pneumoniae [13] = test: Antibacterial activity against cephalosporin-resistant Streptococcus pneumoniae ATCC 51916 clinical isolates after 18 to 20 hrs by CLSI-based broth microdilution assay; assay type: functional
# Klebsiella pneumoniae [14] = test: Ratio of MBC to MIC for Klebsiella pneumoniae BAA-1706 after 18 to 20 hrs in aerobic condition by CLSI-based broth microdilution assay; assay type: functional
# Staphylococcus aureus [15] = test: Antibacterial activity against linezolid-resistant/Methicillin-resistant Staphylococcus aureus NRS119 clinical isolates after 18 to 20 hrs in aerobic condition by CLSI protocol based broth microdilution assay; assay type: functional
# Escherichia coli [16] = test: microbe, parasite or virus in culture; conditions: ATCC 1411
# Description: Antibacterial activity against Escherichia coli ATCC 1411 clinical isolates after 18 to 20 hrs in aerobic condition by CLSI-based broth microdilution assay
# Salmonella enteritidis [17] = test: Antibacterial activity against Salmonella enteritidis ATCC 13076 clinical isolates after 18 to 20 hrs in aerobic condition by CLSI-based broth microdilution assay; assay type: functional, Salmonella enterica subsp. enterica serovar Enteritidis; conditions: Salmonella enterica
# Escherichia coli [18] = test: Antibacterial activity against carbapenem-resistant Escherichia coli BAA-2469 clinical isolates after 18 to 20 hrs in aerobic condition by CLSI-based broth microdilution assay; assay type: functional
# Escherichia coli [19] = test: Antibacterial activity against Escherichia coli BW25113 clinical isolates after 18 to 20 hrs in aerobic condition by CLSI-based broth microdilution assay; assay type: functional
# Staphylococcus aureus [20] = test: Antibacterial activity against Methicillin-resistant Staphylococcus aureus USA700-NRS386 clinical isolates after 18 to 20 hrs in aerobic condition by CLSI protocol based broth microdilution assay; assay type: functional
# Enterococcus faecium [21] = test: Antibacterial activity against vancomycin-resistant Enterococcus faecium ATCC 700221 clinical isolates after 18 to 20 hrs in aerobic condition by CLSI-based broth microdilution assay; assay type: functional
# Staphylococcus aureus [22] = test: Antibacterial activity against Methicillin-sensitive Staphylococcus aureus NRS107 clinical isolates after 18 to 20 hrs in aerobic condition by CLSI protocol based broth microdilution assay; assay type: functional
# Listeria monocytogenes [23] = test: Ratio of MBC to MIC for Listeria monocytogenes ATCC 19111 clinical isolates; assay type: functional
# Staphylococcus aureus [24] = test: Antibacterial activity against methicillin-resistant Staphylococcus aureus NRS384-USA300 clinical isolates after 18 to 20 hrs in aerobic condition by CLSI protocol based broth microdilution assay; assay type: functional
# Acinetobacter baumannii [25] = test: Antibacterial activity against Acinetobacter baumannii ATCC BAA 1141 clinical isolates after 18 to 20 hrs in aerobic condition by CLSI-based broth microdilution assay; assay type: functional
# Acinetobacter baumannii [26] = test: Ratio of MBC to MIC for Acinetobacter baumannii NR 17785 clinical isolates; assay type: functional
# Streptococcus pneumoniae [27] = test: Antibacterial activity against methicillin-resistant Streptococcus pneumoniae ATCC 700677 clinical isolates after 18 to 20 hrs by CLSI-based broth microdilution assay; assay type: functional
# Enterococcus faecalis [28] = test: Ratio of MBC to MIC for vancomycin-resistant Enterococcus faecalis ATCC 51299 clinical isolates; assay type: functional
# Pseudomonas aeruginosa [29] = test: microbe, parasite or virus in culture; conditions: ATCC 9027
# Description: Antibacterial activity against Pseudomonas aeruginosa ATCC 9027 clinical isolates after 18 to 20 hrs in aerobic condition by CLSI-based broth microdilution assay
# Acinetobacter baumannii [30] = test: Ratio of MBC to MIC for Acinetobacter baumannii NR 17786 clinical isolates; assay type: functional
# Pseudomonas aeruginosa [31] = test: Ratio of MBC to MIC for Pseudomonas aeruginosa ATCC 15442 clinical isolates; assay type: functional
# [32] = tested on: Staphylococcus epidermidis; test: Antibacterial activity against Staphylococcus epidermidis NRS101 after 18 to 20 hrs in aerobic condition by CLSI-based broth microdilution assay; assay type: functional
# Shigella flexneri [33] = test: Ratio of MBC to MIC for Shigella flexneri ATCC 9199 clinical isolates; assay type: functional
# Escherichia coli [34] = test: Antimicrobial activity against Escherichia coli JW55031 harboring deltatolC mutant after 18 to 20 hrs in aerobic condition by CLSI protocol based broth microdilution assay; assay type: functional
# Klebsiella pneumoniae [35] = test: Antibacterial activity against carbapenem-resistant Klebsiella pneumoniae ATCC BAA-1705 clinical isolates after 18 to 20 hrs in aerobic condition by CLSI-based broth microdilution assay; assay type: functional
# Salmonella typhimurium = test: Ratio of MBC to MIC for Salmonella typhimurium ATCC 700720 clinical isolates; assay type: functional, Salmonella enterica subsp. enterica serovar Typhimurium
# Enterococcus faecium [36] = test: Ratio of MBC to MIC for vancomycin-resistant Enterococcus faecium ATCC 700221 clinical isolates; assay type: functional
# Salmonella enteritidis [37] = test: Antibacterial activity against Salmonella enteritidis ATCC 14028 clinical isolates after 18 to 20 hrs in aerobic condition by CLSI-based broth microdilution assay; assay type: functional, Salmonella enterica subsp. enterica serovar Enteritidis; conditions: Salmonella enterica
# Enterococcus faecalis [38] = test: Antibacterial activity against vancomycin-resistant Enterococcus faecalis ATCC 51299 clinical isolates after 18 to 20 hrs in aerobic condition by CLSI-based broth microdilution assay; assay type: functional
# Escherichia coli [39] = test: Antibacterial activity against Escherichia coli ATCC 25922 clinical isolates after 18 to 20 hrs in aerobic condition by CLSI-based broth microdilution assay; assay type: functional
# Escherichia coli [40] = test: Ratio of MBC to MIC for Escherichia coli ATCC 25922 clinical isolates; assay type: functional
compound,measurement,setting,value
CCCCCC#Cc1ccc(-n2ncc(/C(C)=N/NC(=N)N)c2C)cc1,Ratio,Clostridioides difficile,<3
same,Ratio,Streptococcus pneumoniae [1],<3
same,MIC,Acinetobacter baumannii [2],4 µg/mL
same,Ratio,Klebsiella pneumoniae [3],>=1
same,Ratio,[4],> 1
same,Ratio,[5],<3
same,MIC,Shigella flexneri [6],8 µg/mL
same,MIC,Escherichia coli [7],8 µg/mL
same,MIC,Pseudomonas aeruginosa [8],32 µg/mL
same,MIC,Salmonella enterica,8 µg/mL
same,Activity,Staphylococcus aureus [9],Active
same,inhibition,Escherichia coli [10],inactive
same,MIC,Escherichia coli [11],16 µg/mL
same,MIC,Listeria monocytogenes [12],2 µg/mL
same,MIC,Streptococcus pneumoniae [13],2 µg/mL
same,Ratio,Klebsiella pneumoniae [14],>=1
same,MIC,Staphylococcus aureus [15],2 µg/mL
same,MIC,Escherichia coli [16],16 µg/mL
same,MIC,Salmonella enteritidis [17],8 µg/mL
same,MIC,Escherichia coli [18],8 µg/mL
same,MIC,Escherichia coli [19],8 µg/mL
same,MIC,Staphylococcus aureus [20],2 µg/mL
same,MIC,Enterococcus faecium [21],2 µg/mL
same,MIC,Staphylococcus aureus [22],2 µg/mL
same,Ratio,Listeria monocytogenes [23],<3
same,MIC,Staphylococcus aureus [24],2 µg/mL
same,MIC,Acinetobacter baumannii [25],4 µg/mL
same,Ratio,Acinetobacter baumannii [26],>=1
same,MIC,Streptococcus pneumoniae [27],2 µg/mL
same,Ratio,Enterococcus faecalis [28],<3
same,MIC,Pseudomonas aeruginosa [29],16 µg/mL
same,Ratio,Acinetobacter baumannii [30],>=1
same,Ratio,Pseudomonas aeruginosa [31],>=1
same,MIC,[32],2 µg/mL
same,Ratio,Shigella flexneri [33],>=1
same,MIC,Escherichia coli [34],4 µg/mL
same,MIC,Klebsiella pneumoniae [35],16 µg/mL
same,Ratio,Salmonella typhimurium,>=1
same,Ratio,Enterococcus faecium [36],<3
same,MIC,Salmonella enteritidis [37],16 µg/mL
same,MIC,Enterococcus faecalis [38],2 µg/mL
same,MIC,Escherichia coli [39],8 µg/mL
same,Ratio,Escherichia coli [40],>=1
